Measurements published in the NIST ThermoML archive (doi:10.1021/je025660t).
± gives the expanded uncertainty stated by the source.

Conditions: Liquid

COCC(C)O (centres undefined) [1-methoxy-2-propanol]
Conditions	vapor or sublimation pressure [kPa]
331.47 K	9.246 ± 0.14
333.15 K	10.01 ± 0.14
339.12 K	13.11 ± 0.14
343.15 K	15.79 ± 0.14
347.71 K	19.25 ± 0.15
351.56 K	22.64 ± 0.15
353.15 K	24.17 ± 0.15
355.59 K	26.69 ± 0.16
358.15 K	29.57 ± 0.16
360.78 K	32.79 ± 0.17
363.01 K	35.74 ± 0.17
368.23 K	43.48 ± 0.18
373.31 K	52.31 ± 0.19

CCCCCN [1-pentanamine]
Conditions	vapor or sublimation pressure [kPa]
322.61 K	13.08 ± 0.07
328.37 K	16.87 ± 0.073
333.14 K	20.65 ± 0.075
338.07 K	25.25 ± 0.078
340.66 K	27.99 ± 0.08
343.16 K	30.85 ± 0.082
345.56 K	33.81 ± 0.084
348.11 K	37.22 ± 0.086
353.15 K	44.75 ± 0.091
358.15 K	53.38 ± 0.097
363.14 K	63.27 ± 0.1
370.62 K	80.72 ± 0.12
377.93 K	101.33 ± 0.13

CCC#N [propanenitrile]
Conditions	vapor or sublimation pressure [kPa]
309.38 K	10.59 ± 0.069
311.56 K	11.55 ± 0.2
313.15 K	12.55 ± 0.07
315.89 K	14.14 ± 0.071
318.35 K	15.71 ± 0.072
320.51 K	17.22 ± 0.073
323.15 K	19.22 ± 0.074
325.74 K	21.35 ± 0.076
328.27 K	23.64 ± 0.077
330.82 K	26.11 ± 0.079
333.15 K	28.57 ± 0.08
335.82 K	31.64 ± 0.082
338.22 K	34.61 ± 0.085
343.08 K	41.33 ± 0.089
348.09 K	49.32 ± 0.094
353.15 K	58.6 ± 0.1

CC#N [acetonitrile]
Conditions	vapor or sublimation pressure [kPa]
302.25 K	14.15 ± 0.071
307.09 K	17.52 ± 0.073
311.49 K	21.13 ± 0.076
313.15 K	22.65 ± 0.077
316.27 K	25.72 ± 0.079
318.18 K	27.78 ± 0.08
320.65 K	30.64 ± 0.082
323.16 K	33.8 ± 0.084
326.16 K	37.9 ± 0.087
328.5 K	41.38 ± 0.089
331.15 K	45.62 ± 0.092
333.15 K	49.06 ± 0.094
335.84 K	54.01 ± 0.097
338.15 K	58.58 ± 0.1
343.18 K	69.62 ± 0.11
348.25 K	82.37 ± 0.12
353.1 K	96.34 ± 0.12
